Measurements from patent US9101133B2, “Phenyl-substituted bicyclooctane-1,3-dione-derivatives” (BAYER INTELLECTUAL PROPERTY GMBH, priority 2010, dated 2015).

How the values were obtained:
Experiment in all cases: Herbicidal post-emergence action
Assay type in all cases: in vivo
SETVI = conditions: 504 h, visual assessment after about three weeks, 100% = plants have died, read-out: herbicidal effect in percent, SETVI
POAAN = conditions: 100 g/ha, visual assessment after about three weeks, 100% = plants have died
Description: (§1) 2. Herbicidal Post-Emergence Action
(§2) • Seeds of monocotylidonous and dicotylidonous weed and crop plants are placed in sandy loam in wood fibre pots, covered with soil and cultivated in a greenhouse under good growth conditions. Two to three weeks after sowing, the test plants are treated at the one-leaf stage. The test compounds, formulated as wettable powders (WP), are then with a water application rate of 600 l/ha (converted), with 0.2% of wetting agent added, sprayed onto the green parts of the plants in different amounts. After the test plants have been kept in the greenhouse under optimum growth conditions for about three weeks, the effect of the preparations is assessed visually in comparison to untreated controls (herbicidal effect in percent: 100% effect=the plants have died, 0% effect=like control plants). […]

APESV = conditions: 100 g/ha, visual assessment after about three weeks, 100% = plants have died
Description: as §1, §2

PHAMI = conditions: 100 g/ha, visual assessment after about three weeks, 100% = plants have died
Description: as §1, §2

AVEFA = conditions: 100 g/ha, visual assessment after about three weeks, 100% = plants have died

CCOC(=O)OC1=C(c2c(CC)cc(C)cc2CC)C(=O)C2CC(C(OC)OC)CC12 (centres unmarked) [I-c-1, 2-(2,6-Diethyl-4-methylphenyl)-5-(dimethoxymethyl)-3-oxo-3,3a,4,5,6,6a-hexahydropentalen-1-yl ethyl carbonate]
pest or weed control at 100 g/ha (SETVI): 97%
herbicidal effect in percent, POAAN (POAAN): 85%
herbicidal effect in percent, APESV (APESV): 100%
herbicidal effect in percent, PHAMI (PHAMI): 99%
herbicidal effect in percent, AVEFA (AVEFA): 80%
